Experimental data from patent US20240415851A1, “REMODILINS TO PREVENT OR TREAT CANCER METASTASIS, GLAUCOMA, AND HYPOXIA” (The University of Chicago, priority 2019, published 2024).

Assays:
[1] = test system: human primary trabecular meshwork cells; assay: α-SMA expression in TGF-β2 treated TM cells; type: cell-based; details: TGFβ2 5 ng/mL 48 hr; remodilin 3 μM, PGE2 1 μM; vs DMSO
Description: FIG. 9 Anti-fibrogenic effects of remodilin 50 in human primary trabecular meshwork cells.
(§1) TM cells were cultured in 6-well plates and serum-deprived for one day before drug treatment. Cells were treated with prostaglandin E2 (PGE2, 1 μM), remodilin [3 μM] or vehicle control (dimethyl sulfoxide, DMSO) together with human recombinant TGF-β2 [5 ng/ml] for 48 hours. PGE2 was chosen as a positive control due to its known anti-fibrogenic effects. […] The effect of remodilin treatment alone on cellular contractile force in TM cells was examined. The effects of remodilin treatment using “force response ratio” which is a normalized average contractile force compared to baseline, was examined. Average contractile force was measured using Fourier-Transform Traction Microscopy. After 1 hr treatment, compared to DMSO, remodilins reduced average contractile force of TM cells in a dose dependent manner. […] Therefore, remodilins may change structural compositions and mechanical properties of TM and therefore, may help increase outflow facility in glaucomatous eyes with elevated TGF-β2 level.

[2] = test system: human lung-derived fibroblasts; assay: TGFβ-induced myofibroblast transformation (ACTA2, FN1 protein expression); type: cell-based; details: 1 ng/mL TGFβ1; 0, 1, 3, or 10 μM remodilin for 2 d; dose-dependent
Description: FIG. 1 Remodilins inhibit myofibroblast transformation (MFT). Serum deprived human lung-derived fibroblasts were treated with 1 ng/mL TGFβ1 (or not, left lane) and 0, 1, 3, or 10 μM remodilin for 2 d. Four remodilins each inhibited smooth muscle α-actin (ACTA2) or fibronectin-1 (FN1) protein expression (markers of MFT).

[3] = test system: Smad-dependent transcription; assay: TGFβ-stimulated Smad-dependent transcription (SBE-Luc reporter); type: cell-based; details: human lung fibroblasts; 10 μM
Description: (§2) FIG. 2 Signaling pathway targeted by remodilins. Schematic diagram (center) of signaling from TGFβ to (SRF); red proteins are some, but not all, potential targets. TGFβ stimulates Smad-dependent transcription in human lung fibroblasts that is unchanged by 10 μM remodilin 4 (left), but TGFβ-stimulated SRF-dependent transcription is inhibited by the remodilin (right). SBE—Smad binding element; Luc—luciferase; TK-RL—constitutively active thymidine kinase promoter-driven renilla luciferase (used to control for transfection efficiency).
(§3) In cultured human lung fibroblasts, remodilins act downstream of Smad signaling, which remains intact, though TGFβ-induced SRF activation is blocked (FIG. 2); SRF is necessary for expression of smooth muscle α-actin and other contractile proteins. Remodilins also suppress TGFβ-induced HIF1α expression in human lung fibroblasts and HIF1α-stimulated pathways in human airway myocytes.

[4] = test system: SRF-dependent transcription; assay: TGFβ-stimulated SRF-dependent transcription (luciferase reporter); type: cell-based; details: human lung fibroblasts; 10 μM
Description: as §2, §3

MDA-MB-231 cells [5] = assay: Spheroid invasion into collagen gels; type: cell-based, human; details: 10 µM remodilin; 48 hrs; collagen 2 mg/mL; DMEM 0.5% FBS; vs 0.1% DMSO
Description: FIG. 3 MDA-MB-231 cells were grown into spheroids, then allowed to migrate into collagen gels in DMEM containing 0.5% FBS and remodilin (10 µM remodilin 39 [top row] or remodilin 83 [bottom row]) or diluent (0.1% DMSO) for 48 hrs (representative 48 hr images shown).
(§4) Remodilins 39 and 83 each slowed the invasion of triple negative MDA-MB-231 human breast cancer cells from spheroids into a surrounding collagen gel (FIG. 3), and also slowed the serum-directed invasion MDA-MB-231-derived BM1 cells through Matrigel-coated transwells (FIG. 4). Remodilins 39 and 83 also slowed the migration of MDA-MB-231 cells in a scratch wound healing assay (FIG. 5).

[6] = test system: MDA-MB-231-derived BM1 cells; assay: 10% FBS-directed invasion through Matrigel-coated transwell membrane; type: cell-based, human; details: dose-dependent; n=3/condition
Source text: FIG. 4 Remodilins 39 and 83 inhibited 10% FBS-directed invasion migration of MDA-MB-231-derived BM1 cells through a Matrigel-coated transwell mem-brane, in a dose-dependent fashion. Mean+SEM shown; n=3/condition. **P<0.01; ***P<0.001; ****P<0.0001.
as §4

MDA-MB-231 cells [7] = assay: Scratch wound healing migration assay; type: cell-based, human; details: dose-dependent; 1, 3, 10 uM; n=8 wells/condition
Description: Mean+SD shown; n=8 wells/condition. P<0.0001 for 1, 3, & 10 uM remodilin 39 vs DMSO (control) by 2-way ANOVA/Dunnett's.
as §4

MDA-MB-231 cells [8] = assay: Alamar blue assay (growth inhibition, cytotoxicity); type: cell-based, human; details: concentrations to at least 10 uM
[9] = In vivo PK and oral bioavailability, single dose; details: mouse, plasma, wild-type mice, 10 mg/kg single dose
Description: (§5) The in vivo bioavailability, plasma half-life, Cmax, and area under the curve (AUC) were determined after administration of single 10 mg/kg doses of remodilins 39 and 83 to mice (Table 1). Selected tissue concentrations of remodilins 39 and 83 after single oral doses of 10 or 50 mg/kg (FIG. 6). The PK properties of these remodilins differ substantially.

[10] = Tissue and plasma concentrations after single oral doses; type: in vivo; details: mice; single oral doses of 10 or 50 mg/kg (FIG. 6)
Description: FIG. 6 Tissue and plasma remodilin concentrations after single oral doses (filled circles 50 mg/kg; open circles-10 mg/kg). […] The greater oral bioavailability, longer half-life, and inter-tissue variation of remodilin 83 concentration are readily evident. Mean+SEM shown; n=3/condition.
as §5
PK was re-evaluated after 14 days of intraperitoneal (IP) or oral BID dosing. […] Plasma levels after single or 15 consecutive once-daily IP 10 mg/kg doses of remodilin 39 were examined (FIG. 8). The plasma concentration of 10 μM remodilin 39 corresponds to 5314 ng/mL.

[11] = Lipophilicity and dissolution in vehicles; type: physicochemical
Description: In the experiments corresponding to FIG. 7, remodilin 83 was dissolved in 20% Solutol in PBS.

HIF1α [12] = assay: Hypoxia-induced HIF1α accumulation in HEK293 cells; type: cell-based; details: 6 hrs steady hypoxia (1% oxygen); 3 μM or 10 µM
Source text: FIG. 12A-12B Remodilins inhibit accumulation of hypoxia-inducible factor-1 alpha (HIF1α) protein. FIG. 12A Effect of remodilin 83 on TGFβ-induced phosphorylation of AKT and ERK1/2 and TGFβ-induced HIF1α accumulation in human fibroblasts. FIG. 12B Both remodilins 39 and 83 inhibited HIF1α accumulation in HEK293 cells exposed to 6 hrs of hypoxia (1% 02).
The influence of remodilin 83 on HIF-1α accumulation in TGFβ-treated fibroblasts was examined. […] Similarly, both remodilins 39 and 83 inhibited HIF1α accumulation in HEK293 cells exposed to 6 hrs of hypoxia (1% O2; FIG. 12B). […] N—normoxia; H—hypoxia.

HIF1α [13] = assay: Hypoxia-induced HIF1α accumulation in HEK293T cells (Western blot); type: cell-based; details: 6 hrs steady hypoxia; 3 or 10 μM
Source text: FIG. 14A-14B Remodilins' effects on hypoxia-induced accumulation of HIF1α. […] FIG. 14B HIF1α was absent in cells ex-posed to 6 hrs normoxia (N).
OSA is a chronic, morbid disease affecting about 10% of the adult population, in which frequent episodes of upper airway collapse obstruct inspiratory airflow and cause IH. These episodes of IH disrupt sleep but perhaps more importantly accelerate multiple cardiometabolic abnormalities, including systemic hypertension, cardiovascular disease, stroke, and abnormal glucose metabolism. Therefore, remodilins were examined for their ability on inhibit hypoxia-induced accumulation of HIF1α, a transcription factor that mediates many of the adverse responses to IH.

TM cells = assay: Contractile force of TM cells (Fourier-Transform Traction Microscopy); type: cell-based, human; details: treatment alone, 1 hr, vs DMSO; dose dependent
Description: as §1

[14] = test system: human primary Schlemm's canal endothelial cells; assay: Fibronectin expression in TGF-β2 treated SC cells; type: cell-based; details: TGFβ2 2.5 ng/mL 48 hr; remodilin 3 or 10 μM; vs DMSO
Description: (§6) FIGS. 11A-11C Anti-fibrogenic effects of remodilins 50, 73, and 82 in human primary Schlemm's canal endothelial cells.
Remodilins' effect on SC cells, another key cell type in conventional outflow pathway, was examined. As described above, TGF-β2 also promotes pro-fibrogenic activation in SC cells and such activation accompanies elevation of cell contraction. Protein expression in TGF-β2 treated SC cells was examined first. SC cells from two different donors were cultured in 6-well plates and serum-deprived for 1 day before drug treatment. Cells were treated with Remodilin [3 or 10 μM] or DMSO together with human recombinant TGF-2 [2.5 ng/ml] for 48 hours.

[15] = test system: human primary Schlemm's canal endothelial cells; assay: Contractile force of SC cells (Fourier-Transform Traction Microscopy); type: cell-based; details: vs DMSO; for elevation of cellular contractile force in TGFβ2 treated SC cells: TGFβ2 2.5 ng/mL 48 hr, dose-dependent; for cellular contractile force of SC cells, remodilin alone: treatment alone, 1 hr, dose dependent
Description: as §6
Remodilins' effect on elevation of SC cell contraction by TGF-β2 treatment was then examined. Cellular contractile force was measured using Fourier-Transform Traction Microscopy. Compared to no treatment, TGF-β2 treatment elevated average cellular contractile force by almost seven-fold. […] Then, the effect of remodilin treatment alone on cellular contractile force in SC cells was investigated. After 1 hr treatment, compared to DMSO, remodilins reduced cellular contractile force in a dose dependent manner (FIG. 11C). […] Taken together, the anti-fibrogenic effects and relaxation effects of remodilins could be beneficial to reduce outflow resistance potentially through promoting pore formation in SC inner wall.

Row | SMILES | α-SMA expression induced by TGF-β2 in TM cells [1] | TGFβ-stimulated transformation of human lung-derived fibroblasts to myofibroblast phenotype (ACTA2 or FN1 protein expression) [2] | average contractile force of TM cells (force response ratio) (TM cells) | fibronectin expression in TGFβ2 treated SC cells [14] | elevation of cellular contractile force in TGFβ2 treated SC cells [15] | cellular contractile force of SC cells, remodilin alone [15] | other results
1 | CCCCC[C@H](O)/C=C/[C@H]1[C@H](O)CC(=O)[C@@H]1C/C=C\CCCC(=O)O [PGE2, prostaglandin E2, reference compound] | inhibited α-SMA expression |  |  |  |  |  | 
2 | CCN(CC)S(=O)(=O)c1ccc(NC(=O)c2ccc(OC)c(I)c2)cc1 [Remodilin 4, N-(4-(N,N-diethylsulfamoyl)phenyl)-3-iodo-4-methoxybenzamide] |  | blunt TGFβ-stimulated transformation |  |  |  |  | TGFβ-stimulated Smad-dependent transcription [3]: unchanged; TGFβ-stimulated SRF-dependent transcription [4]: inhibited
3 | COc1ccc(C(=O)Nc2ccc(S(=O)(=O)N3CCCCC3C)cc2)cc1I (stereo not drawn) [Remodilin 39, 3-Iodo-4-methoxy-N-(4-((2-methylpiperidin-1-yl)sulfonyl)phenyl)benzamide] |  | blunt TGFβ-stimulated transformation |  |  |  |  | invasion of MDA-MB-231 cells from spheroids into collagen gels (MDA-MB-231 cells [5]): inhibited invasion; 10% FBS-directed invasion migration of BM1 cells through Matrigel-coated transwell membrane [6]: inhibited; migration of confluent MDA-MB-231 cells into circular scratch wound (MDA-MB-231 cells [7]): inhibited migration; growth inhibition or cytotoxicity by Alamar blue assay (MDA-MB-231 cells [8]): Neither remodilin is growth-inhibitory or cytotoxic; bioavailability ([9]; po): 4%; AUC [9]: 224 ng·h/mL; Cmax [9]: 240 nM; half-life [9]: 1.3 h; tissue distribution [10]: distributed much more uniformly across tissues; lipophilicity / lipid solubility [11]: highly lipid soluble; HIF1α accumulation in HEK293 cells exposed to hypoxia (HIF1α [12]): blunted HIF1α accumulation substantially; HIF1α accumulation in HEK293T cells exposed to hypoxia (HIF1α [13]): inhibit the accumulation of HIF1α
4 | O=C(Nc1ccc(S(=O)(=O)N2CCCC2)cc1)c1ccc(Br)c(I)c1 [Remodilin 50, 4-Bromo-3-iodo-N-(4-(pyrrolidin-1-ylsulfonyl)phenyl)benzamide] | inhibited alpha smooth muscle actin expression | blunt TGFβ-stimulated transformation | induced relaxation in TM cells | inhibited fibronectin expression | inhibited the elevation of cellular contractile force | induced relaxation in SC cells | 
5 | CC1CCCCN1S(=O)(=O)c1ccc(NC(=O)c2ccc(Br)c(I)c2)cc1 (stereo not drawn) [Remodilin 73, 4-Bromo-3-iodo-N-(4-((2-methylpiperidin-1-yl)sulfonyl)phenyl)benzamide] |  |  |  | inhibited fibronectin expression | inhibited the elevation of cellular contractile force | induced relaxation in SC cells | 
6 | CCC1CCCCN1S(=O)(=O)c1ccc(NC(=O)c2ccc(OC)c(I)c2)cc1 (stereo not drawn) [Remodilin 82, N-(4-((2-ethylpiperidin-1-yl)sulfonyl)phenyl)-3-iodo-4-methoxybenzamide] |  |  | induced relaxation in TM cells | inhibited fibronectin expression | inhibited the elevation of cellular contractile force | induced relaxation in SC cells | 
